Experimental data published in patent US20110020312A1, “METHODS FOR TREATMENT OF METABOLIC DISORDERS USING EPIMETABOLIC SHIFTERS, MULTIDIMENSIONAL INTRACELLULAR MOLECULES, OR ENVIRONMENTAL INFLUENCERS” (priority 2009, published 2011).

What was measured:
[1] = test system: SCC cells; test: Real-time PCR Diabetes Array; type: cell-based; settings: 100 μM
Description: The control cells were untreated cells.

[2] = test system: Pancreatic Cancer Cells (PaCa2); test: Real-time PCR Diabetes Array; type: cell-based; settings: 100 uM Q10, various times
Description: Experiments were carried out essentially as described above.

[3] = test system: HepG2 (liver cancer) cells; test: PCR Diabetes Array; type: cell-based
Description: The treatment was initiated on 1×10^5 cells per well, following the procedure utilized in the PaCa2 cells (above, Examples 9-11). However, the total amount of RNA that was extracted from these samples was lower than expected. Reverse transcription is normally done using 1 μg of total RNA (determined by measurement at 260 nm). The maximum volume that can be used per reverse transcription is 8 μl.

[4] = test system: MCF-7 breast cancer cells; test: Oxygen consumption rate (OCR), SeaHorse XF analyzer; type: cell-based; settings: absence and presence of stressors (FIG. 31)
Description: (§1) Environmental influencers (e.g., MIMs or Epi-shifters) may also be identified by changes in cellular energetics. One example of the measurement of cellular energetics are the real-time measures of the consumption of molecular oxygen and/or the change in pH of the media of a cell culture. For example, the ability of a potential epi-shifter to modulate the metabolic state of a cell may be analyzed using, for example, the XF24 Analyzer (Seahorse, Inc.). This technology allows for real time detection of oxygen and pH changes in a monolayer of cells in order to evaluate the bioenergetics of a cell microenvironment. The XF24 Analyzer measures and compares the rates of oxygen consumption (OCR), which is a measure of aerobic metabolism, and extracellular acidification (ECAR), which is a measure of glycolysis, both key indicators of cellular energetics.
(§2) (SeaHorse Biosciences Inc, North Billerica, Mass.).
(§3) In contrast, cancer cells (e.g., MCF-7, PaCa-2) are inherently primed to culture at higher levels of glucose compared to normal cells due to their glycolytic phenotype for maintenance in culture.

[5] = test system: PaCa-2 pancreatic cancer cells; test: as above; type: cell-based; settings: absence and presence of stressors (FIG. 32)
Description: as §1, §2, §3

[6] = test system: HDFa cells; test: Extracellular acidification rate (ECAR), SeaHorse XF analyzer; type: cell-based, human
Description: as §1, §2
In this experiment, the OCR and extracellular acidification rate (ECAR) in normal cells lines were obtained in the presence and absence of CoQ10 to determine baseline values. It was observed that in its native nutrient environment, the basal OCR rates in normal cells lines are different, and are usually a function of the physiological roles of the cells in the body.
Table 51 below describes the ECAR values (mpH/min) in HDFa cells in the presence or absence of CoQ10 under normoxic and hypoxic conditions at 5.5 mM and 22 mM glucose.

[7] = test system: normal fibroblast; test: Bcl2 level after co-administration of CoQ-10 and VEGF; type: cell-based; settings: co-administration with VEGF

SMILES: COC1=C(OC)C(=O)C(C/C=C(\C)CC/C=C(\C)CC/C=C(\C)CC/C=C(\C)CC/C=C(\C)CC/C=C(\C)CC/C=C(\C)CC/C=C(\C)CC/C=C(\C)CCC=C(C)C)=C(C)C1=O [Q10, Coenzyme Q10]
- TNFRSF1A gene Regulation ([1]; at 6 and 24 hours): Down regulated
- G6PD gene Regulation ([1]; at 6 hours): Down regulated
- ICAM1 gene Regulation ([1]; at 6 hours): Down regulated
- INPPL1 gene Regulation ([1]; at 6 hours): Down regulated
- NOS3 gene Regulation ([1]; at 6 hours): Down regulated
- PIK3CD gene Regulation ([1]; at 6 hours): Down regulated
- PPARA gene Regulation ([1]; at 6 hours): Down regulated
- PYGL gene Regulation ([1]; at 6 hours): Down regulated
- SREBF1 gene Regulation ([1]; at 6 hours): Down regulated
- STXBP2 gene Regulation ([1]; at 6 hours): Down regulated
- TNF gene Regulation ([1]; at 6 hours): Down regulated
- VEGFA gene Regulation ([1]; at 6 hours): Down regulated
- genes modulated by Q10 treatment (Diabetes arrays) [2]: ABCC8, ACLY, ADRB3, CCL5, CEACAM1, CEBRA, FOXG1, FOXP3, G6PD, GLP1R, GPD1, HNF4A, ICAM1, IGFBP5, INPPL1, IRS2, MAPK14, ME1, NFKB1, PARP1, PIK3C2B, PIK3CD, PPARGC1B, PRKAG2, PTPN1, PYGL, SLC2A4, SNAP25, HNF1B, TNRFSF1A, TRIB3, VAPA, VEGFA, IL4R and IL6
- PPARGC1A mRNA downregulated ([3]; 100 μM Q10, 16 hours): approximately 20 fold
- PRKAA1 mRNA downregulated ([3]; 100 μM Q10, 16 hours): ~6 fold
- SNAP25 mRNA downregulated ([3]; 100 μM Q10, 16 hours): ~5 fold
- PPARGC1A mRNA ([3]; 100 μM Q10, 48 hours): normalized or were slightly upregulated
- PRKAA1 mRNA ([3]; 100 μM Q10, 48 hours): normalized or were slightly upregulated
- SNAP25 mRNA downregulated ([3]; 100 μM Q10, 48 hours): approximately 2 fold
- OCR values [4]: consistent reduction
- OCR values [5]: consistent reduction
- ECAR ([6]; high glucose hypoxic conditions, to value of untreated normoxic conditions): lowering of elevated ECAR
- ECAR values ([6]; normal cells, normoxic and hypoxic, 5.5 mM and 22 mM glucose): minimal influence
- levels of Bcl2 [7]: no effect
